Assay: Aqueous solubility of torcetrapib
Assay type: physicochemical
Conditions: aqueous environment, at about 22° C. unless otherwise specified
Experimental: The CETP inhibitor may be any compound capable of inhibiting the cholesteryl ester transfer protein. The CETP inhibitor is typically “sparingly water-soluble,” which means that the CETP inhibitor has a minimum aqueous solubility of less than about 1 to 2 mg/mL at any physiologically relevant pH (e.g., pH 1-8) and at about 22° C. Many CETP inhibitors are “substantially water-insoluble,” which means that the CETP inhibitor has a minimum aqueous solubility of less than about 0.01 mg/mL (or 10 μg/mL) at any physiologically relevant pH (e.g., pH 1-8) and at about 22° C. (Unless otherwise specified, reference to aqueous solubility herein and in the claims is determined at about 22° C.) Compositions of the present invention find greater utility as the solubility of the CETP inhibitors decreases, and thus are preferred for CETP inhibitors with solubilities less than about 10 μg/mL, and even more preferred for CETP inhibitors with solubilities less than about 1 μg/mL. Many CETP inhibitors have even lower solubilities (some even less than 0.1 μg/mL), and require dramatic concentration enhancement to be sufficiently bioavailable upon oral dosing for effective plasma concentrations to be reached at practical doses. […]

solubility: < 0.04 µg/mL
SMILES: CCOC(=O)N1c2ccc(C(F)(F)F)cc2[C@@H](N(Cc2cc(C(F)(F)F)cc(C(F)(F)F)c2)C(=O)OC)C[C@H]1CC [torcetrapib, [2R,4S]-4-[(3,5-bis-trifluoromethyl-benzyl)-methoxycarbonyl-amino]-2-ethyl-6-trifluoromethyl-3,4-dihydro-2H-quinoline-1-carboxylic acid ethyl ester]

Reference: patent US20080145427A1, “Dosage Forms Providing Controlled and Immediate Release of Cholesteryl Ester Transfer Protein Inhibitors and Immediate Release of Hmg-Coa Reductase Inhibitors” (priority 2005, published 2008)
